In PMC2617778, “Discovery of a Novel Activator of KCNQ1-KCNE1 K^+ Channel Complexes” (PLoS ONE, 2009):

What was measured:
Format in all cases: cell-based
[1] = target: T1, Q1/E1 (KCNQ1/KCNE1 complex) (Homo sapiens, UniProt P51787); assay: two-electrode voltage clamp, Xenopus oocytes; settings: inhibitor, ND96, pH 7.6, +40 mV, 2 s pulse
T1 construct: with Potassium voltage-gated channel subfamily E member 1

KCNQ4 (Q4) = target: T2, KCNQ4 (Q4) (Homo sapiens, UniProt P56696); assay: two-electrode voltage clamp, Xenopus oocytes; delta gmax on washout, hyperbola fit; settings: read-out: Phenylboronic Acid (PBA) / EC50
T2 construct: homotetramer expressed in Xenopus laevis oocytes
T2 sequence (P56696 1-695): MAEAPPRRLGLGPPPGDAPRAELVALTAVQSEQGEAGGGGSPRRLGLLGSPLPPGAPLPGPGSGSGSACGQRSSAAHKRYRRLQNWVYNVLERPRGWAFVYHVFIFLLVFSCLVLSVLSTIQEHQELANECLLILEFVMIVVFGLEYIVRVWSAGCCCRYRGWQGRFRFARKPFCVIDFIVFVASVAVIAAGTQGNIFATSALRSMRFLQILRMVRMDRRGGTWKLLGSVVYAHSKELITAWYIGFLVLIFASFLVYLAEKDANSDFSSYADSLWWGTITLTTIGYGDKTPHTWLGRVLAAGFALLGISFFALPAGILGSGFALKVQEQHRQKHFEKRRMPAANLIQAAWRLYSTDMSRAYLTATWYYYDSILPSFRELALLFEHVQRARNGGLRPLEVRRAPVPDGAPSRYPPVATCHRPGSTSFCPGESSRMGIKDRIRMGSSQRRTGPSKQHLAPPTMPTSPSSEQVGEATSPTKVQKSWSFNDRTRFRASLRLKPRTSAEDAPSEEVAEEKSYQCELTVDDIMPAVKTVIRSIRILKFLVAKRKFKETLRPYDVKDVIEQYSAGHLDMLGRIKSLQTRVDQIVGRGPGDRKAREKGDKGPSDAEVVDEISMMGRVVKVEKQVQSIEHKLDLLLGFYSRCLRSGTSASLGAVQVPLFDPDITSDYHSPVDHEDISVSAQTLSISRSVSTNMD
Description: two-electrode voltage clamp, Xenopus oocytes; delta gmax on washout, hyperbola fit on KCNQ4 (Q4)

Q2/Q3 (KCNQ2/3) [2] = target: T3, Q2/Q3 (KCNQ2/3) (Homo sapiens, UniProt O43525+O43526); assay: as above; settings: read-out: Phenylboronic Acid (PBA) / EC50
T3 construct: heterotetramer; equal mRNA amounts of both subunits in Xenopus laevis oocytes
T3 sequence (O43526 whole entry): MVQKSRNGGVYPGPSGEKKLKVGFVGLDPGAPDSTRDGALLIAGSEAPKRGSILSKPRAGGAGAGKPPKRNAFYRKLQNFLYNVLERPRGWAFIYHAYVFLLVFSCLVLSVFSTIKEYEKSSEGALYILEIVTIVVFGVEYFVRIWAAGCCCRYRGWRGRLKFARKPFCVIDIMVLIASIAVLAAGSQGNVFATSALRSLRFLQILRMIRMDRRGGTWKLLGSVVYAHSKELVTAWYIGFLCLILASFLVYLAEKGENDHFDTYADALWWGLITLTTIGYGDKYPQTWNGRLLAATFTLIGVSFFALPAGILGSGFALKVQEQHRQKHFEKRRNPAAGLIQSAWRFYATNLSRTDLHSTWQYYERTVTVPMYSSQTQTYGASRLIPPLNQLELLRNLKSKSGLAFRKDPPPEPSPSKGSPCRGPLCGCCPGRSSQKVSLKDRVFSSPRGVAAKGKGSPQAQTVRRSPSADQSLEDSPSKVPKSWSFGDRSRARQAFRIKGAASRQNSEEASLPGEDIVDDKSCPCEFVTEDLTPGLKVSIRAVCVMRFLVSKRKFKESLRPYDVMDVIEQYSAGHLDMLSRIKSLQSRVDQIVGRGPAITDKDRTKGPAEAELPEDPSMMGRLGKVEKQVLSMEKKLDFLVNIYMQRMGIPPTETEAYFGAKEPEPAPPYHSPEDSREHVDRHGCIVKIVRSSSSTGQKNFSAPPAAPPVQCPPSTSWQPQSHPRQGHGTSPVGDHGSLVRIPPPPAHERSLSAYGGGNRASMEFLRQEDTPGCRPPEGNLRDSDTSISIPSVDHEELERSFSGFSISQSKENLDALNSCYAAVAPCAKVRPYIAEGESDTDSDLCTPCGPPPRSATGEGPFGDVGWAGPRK
T3 sequence (O43525 whole entry): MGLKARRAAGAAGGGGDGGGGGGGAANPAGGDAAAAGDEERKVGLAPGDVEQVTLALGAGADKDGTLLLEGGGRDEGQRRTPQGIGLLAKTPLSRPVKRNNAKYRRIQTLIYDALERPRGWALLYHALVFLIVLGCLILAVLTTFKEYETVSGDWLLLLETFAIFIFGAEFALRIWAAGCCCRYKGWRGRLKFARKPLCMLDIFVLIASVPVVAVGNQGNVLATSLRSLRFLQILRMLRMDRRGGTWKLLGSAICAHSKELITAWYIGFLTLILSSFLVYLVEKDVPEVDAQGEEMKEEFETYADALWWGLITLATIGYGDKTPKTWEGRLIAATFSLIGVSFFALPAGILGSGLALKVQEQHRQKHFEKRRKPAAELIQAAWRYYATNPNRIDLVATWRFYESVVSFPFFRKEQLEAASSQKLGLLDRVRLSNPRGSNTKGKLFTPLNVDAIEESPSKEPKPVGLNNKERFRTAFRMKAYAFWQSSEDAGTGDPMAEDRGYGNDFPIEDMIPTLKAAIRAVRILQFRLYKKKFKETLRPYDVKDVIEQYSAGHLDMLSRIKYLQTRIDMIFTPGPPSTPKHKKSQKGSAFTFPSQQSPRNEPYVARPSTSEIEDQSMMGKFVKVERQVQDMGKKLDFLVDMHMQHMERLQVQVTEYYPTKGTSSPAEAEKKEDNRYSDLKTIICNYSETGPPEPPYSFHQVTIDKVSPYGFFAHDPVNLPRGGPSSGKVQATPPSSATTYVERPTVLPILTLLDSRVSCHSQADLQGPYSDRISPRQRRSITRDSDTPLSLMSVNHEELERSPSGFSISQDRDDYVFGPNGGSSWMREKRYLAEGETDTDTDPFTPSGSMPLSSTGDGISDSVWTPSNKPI
Description: two-electrode voltage clamp, Xenopus oocytes; delta gmax on washout, hyperbola fit on Q2/Q3 (KCNQ2/3)

[3] = target: T1, Q1/E1 (KCNQ1/KCNE1 complex); assay: two-electrode voltage clamp, Xenopus oocytes; tail-current Boltzmann fit; settings: reversible activator; 10 mM; ND96, pH 7.6
Description: two-electrode voltage clamp, Xenopus oocytes; tail-current Boltzmann fit on Q1/E1 (KCNQ1/KCNE1 complex)

[4] = target: T4, Q1/E3 (KCNQ1/KCNE3 complex) (Homo sapiens, UniProt P51787); assay: as above; settings: activator (raises current, no V1/2 shift); 10 mM; KD50 (50 mM K+), pH 7.6
T4 construct: with Potassium voltage-gated channel subfamily E member 3
T4 sequence (P51787 1-676): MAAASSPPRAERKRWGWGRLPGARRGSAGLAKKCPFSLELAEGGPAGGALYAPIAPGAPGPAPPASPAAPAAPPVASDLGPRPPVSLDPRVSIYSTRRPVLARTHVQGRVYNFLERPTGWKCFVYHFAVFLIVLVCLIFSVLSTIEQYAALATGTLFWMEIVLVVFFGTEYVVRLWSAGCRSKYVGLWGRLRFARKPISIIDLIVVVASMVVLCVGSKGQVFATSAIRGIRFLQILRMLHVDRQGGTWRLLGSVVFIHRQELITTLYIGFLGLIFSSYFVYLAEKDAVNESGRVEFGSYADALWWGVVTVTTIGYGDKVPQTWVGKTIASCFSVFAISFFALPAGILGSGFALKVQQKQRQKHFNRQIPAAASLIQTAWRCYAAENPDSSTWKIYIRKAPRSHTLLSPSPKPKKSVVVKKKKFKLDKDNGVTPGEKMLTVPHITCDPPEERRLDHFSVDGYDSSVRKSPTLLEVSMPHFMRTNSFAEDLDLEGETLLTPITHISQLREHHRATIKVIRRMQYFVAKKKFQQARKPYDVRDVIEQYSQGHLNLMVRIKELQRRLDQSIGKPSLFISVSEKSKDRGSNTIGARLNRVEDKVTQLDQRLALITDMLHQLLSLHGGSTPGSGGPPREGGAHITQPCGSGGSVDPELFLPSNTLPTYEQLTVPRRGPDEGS
T4 sequence (Q9Y6H6 1-103 partner): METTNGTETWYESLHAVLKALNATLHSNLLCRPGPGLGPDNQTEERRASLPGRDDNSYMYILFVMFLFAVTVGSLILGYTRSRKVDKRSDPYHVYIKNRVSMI
Description: two-electrode voltage clamp, Xenopus oocytes; tail-current Boltzmann fit on Q1/E3 (KCNQ1/KCNE3 complex)

Q2/Q3 (KCNQ2/3) [5] = target: T3, Q2/Q3 (KCNQ2/3); assay: as above; settings: activator; 10 mM; ND96, pH 7.6
Description: two-electrode voltage clamp, Xenopus oocytes; tail-current Boltzmann fit on Q2/Q3 (KCNQ2/3)

O=C(O)c1ccccc1 [benzoic acid]
reversible inhibition at 10 mM [1]: Perfusion of benzoic acid reversibly inhibited Q1/E1

OB(O)c1ccccc1 [PBA, phenylboronic acid]
EC50 (KCNQ4 (Q4)): > 10 mM
EC50 (Q2/Q3 (KCNQ2/3) [2]): 3.7 ± 1.4 mM

OCc1ccccc1 [benzyl alcohol]
Phenylboronic Acid (PBA) / Δ V1/2 (mV) [3]: −4.4±2.4 mV
Phenylboronic Acid (PBA) / Δ V1/2 (mV) [4]: 2.7±4.9 mV
Phenylboronic Acid (PBA) / Δ V1/2 (mV) (Q2/Q3 (KCNQ2/3) [5]): −5.9±2.9 mV
